Molecules are shown by their SMILES.

In general, IC50 refers to the concentration that gives 50% inhibition.

This assay deals with T1, human PAR4 (Homo sapiens, UniProt Q96RI0).
T1 construct: expressed in transfected cells; host or cells: HEK293 PAR4 Clone 1.2A (BMS Arctic ID 383940)
T1 sequence (Q96RI0 18-385): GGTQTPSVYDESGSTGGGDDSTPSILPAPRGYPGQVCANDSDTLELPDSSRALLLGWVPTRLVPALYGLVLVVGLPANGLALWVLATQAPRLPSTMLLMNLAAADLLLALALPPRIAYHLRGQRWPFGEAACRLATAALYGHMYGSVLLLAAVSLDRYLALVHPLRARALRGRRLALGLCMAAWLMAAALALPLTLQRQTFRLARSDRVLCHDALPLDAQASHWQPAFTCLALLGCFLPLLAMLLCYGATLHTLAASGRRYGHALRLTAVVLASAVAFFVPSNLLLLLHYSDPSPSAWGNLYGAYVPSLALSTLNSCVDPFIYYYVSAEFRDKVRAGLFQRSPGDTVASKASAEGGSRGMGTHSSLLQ
Nature of the assay: PAR4 FLIPR assay: antagonism of agonist-peptide-induced calcium mobilization in PAR4-expressing HEK293 cells. It is filed as cell-based. As to conditions: H-Ala-Phe(4-F)-[…]NH2-induced intracellular calcium mobilization, 11-point curves. For orientation: Calcium assays in cells follow changes in intracellular calcium, usually with a dye or a luminescent sensor.
For `Cc1cc(-c2nc3ccccc3[nH]2)c2ncc(OC(F)F)nc2c1` [Example 47, 5-(1H-benzo[d]imidazol-2-yl)-2-(difluoromethoxy)-7-methylquinoxaline], the IC50 came to 34 nM. In the case of `COc1ccc2nc(-c3cc(C)cc4nc(OC(F)F)cnc34)sc2c1` [Example 48, 2-(2-(difluoromethoxy)-7-methylquinoxalin-5-yl)-6-methoxybenzo[d]thiazole], the IC50 was found to be 2.1 nM. As for `Cc1cc(-c2cc3cc(OCC(=O)OC(C)(C)C)ccc3o2)c2ncc(OC(F)F)nc2c1` [Example 49, tert-butyl 2-(2-(2-(difluoromethoxy)-7-methylquinoxalin-5-yl)benzofuran-5-yloxy) acetate], the IC50 came to 9.7 nM. Consider `COc1ccc2[nH]c(-c3cc(C)cc4nc(OC(F)F)cnc34)nc2c1` [Example 50, 2-(difluoromethoxy)-5-(5-methoxy-1H-benzo[d]imidazol-2-yl)-7-methylquinoxaline], for which the IC50 is 92 nM. Consider `COc1cccc2sc(-c3cc(C)cc4nc(OC(F)F)cnc34)nc12` [Example 51, 2-(2-(difluoromethoxy)-7-methylquinoxalin-5-yl)-4-methoxybenzo[d]thiazole], for which the IC50 stood at 180 nM. On to `Cc1cc(-c2nc3c(C)cccc3s2)c2ncc(OC(F)F)nc2c1` [Example 52, 2-(2-(difluoromethoxy)-7-methylquinoxalin-5-yl)-4-methylbenzo[d]thiazole], for which the IC50 is 4.7 nM. In the case of `Cc1cc(-c2nc3c(F)cccc3s2)c2ncc(OC(F)F)nc2c1` [Example 53, 2-(2-(difluoromethoxy)-7-methylquinoxalin-5-yl)-4-fluorobenzo[d]thiazole], the IC50 came out at 9.8 nM. The figure for `CNCCOc1ccc2oc(-c3cc(C)cc4nc(OC(F)F)cnc34)cc2c1` [Example 54, 2-(2-(2-(difluoromethoxy)-7-methylquinoxalin-5-yl)benzofuran-5-yloxy)-N-methylethanamine] is 94 nM; for `COc1cc(OC)c2nc(-c3cc(C)cc4nc(OC(F)F)cnc34)sc2c1` [Example 55, 2-(2-(difluoromethoxy)-7-methylquinoxalin-5-yl)-4,6-dimethoxybenzo[d]thiazole] it is 14 nM; for `COc1ccc2oc(-c3cc(C)cc4nc(OC)cnc34)cc2c1` [Example 56, 2-methoxy-5-(5-methoxybenzofuran-2-yl)-7-methylquinoxaline] it is 4.7 nM. As for `COc1cccc2nc(-c3cc(C)cc4nc(OC(F)F)cnc34)sc12` [Example 58, 2-(2-(difluoromethoxy)-7-methylquinoxalin-5-yl)-7-methoxybenzo[d]thiazole], the IC50 was found to be 3 nM. With `Cc1cc(-c2nc3cc(F)ccc3s2)c2ncc(OC(F)F)nc2c1` [Example 60, 2-(2-(difluoromethoxy)-7-methylquinoxalin-5-yl)-5-fluorobenzo[d]thiazole], the IC50 worked out at 19 nM.

On to `COC(=O)c1cccc2nc(-c3cc(C)cc4nc(OC(F)F)cnc34)sc12` [Example 61, Methyl 2-(2-(difluoromethoxy)-7-methylquinoxalin-5-yl)benzo[d]thiazole-7-carboxylate], for which the IC50 was found to be 43 nM.

Consider `COC(=O)N1CCc2nc(-c3cc(C)cc4nc(OC(F)F)cnc34)sc2C1` [Example 62, methyl 2-(2-(difluoromethoxy)-7-methylquinoxalin-5-yl)-6,7-dihydrothiazolo[5,4-c]pyridine-5(4H)-carboxylate], for which the IC50 is 100 nM. As to `Cc1cc(-c2nc3ccc(OCCNS(=O)(=O)c4ccccc4)cc3s2)c2ncc(OC(F)F)nc2c1` [Example 63, N-(2-(2-(2-(difluoromethoxy)-7-methylquinoxalin-5-yl)benzo[d]thiazol-6-yloxy)ethyl) benzenesulfonamide], the IC50 came to 2.9 nM. The figure for `Cc1cc(-c2nc3cccc(CO)c3s2)c2ncc(OC(F)F)nc2c1` [Example 64, (2-(2-(difluoromethoxy)-7-methylquinoxalin-5-yl)benzo[d]thiazol-7-yl)methanol] is 7.4 nM; for `COCc1cccc2nc(-c3cc(C)cc4nc(OC(F)F)cnc34)sc12` [Example 65, 2-(2-(difluoromethoxy)-7-methylquinoxalin-5-yl)-7-(methoxymethyl)benzo[d]thiazole] it is 31 nM; for `Cc1cc(-c2nc3cccc(CNS(=O)(=O)c4ccccc4)c3s2)c2ncc(OC(F)F)nc2c1` [Example 66, N-((2-(2-(difluoromethoxy)-7-methylquinoxalin-5-yl)benzo[d]thiazol-7-yl)methyl)benzenesulfonamide] it is 28 nM.

`Cc1cc(-c2nc3c(F)cc(OCCNS(=O)(=O)c4ccccc4)cc3s2)c2ncc(OC(F)F)nc2c1` [Example 67, N-(2-(2-(2-(difluoromethoxy)-7-methylquinoxalin-5-yl)-4-fluorobenzo[d]thiazol-6-yloxy)ethyl)benzenesulfonamide]: the IC50 came out at 2.9 nM. For the compound `Cc1ccc2sc(-c3cc(C)cc4nc(OC(F)F)cnc34)nc2c1` [Example 68, 2-(2-(difluoromethoxy)-7-methylquinoxalin-5-yl)-5-methylbenzo[d]thiazole], the IC50 amounted to 120 nM.

For the compound `COC(=O)NCCOc1cccc2nc(-c3cc(C)cc4nc(OC(F)F)cnc34)sc12` [Example 69, Methyl 2-(2-(2-(difluoromethoxy)-7-methylquinoxalin-5-yl)benzo[d]thiazol-7-yloxy)ethylcarbamate], the IC50 came to 36 nM.

Consider `COC(=O)NCCOc1ccc(C)c2nc(-c3cc(C)cc4nc(OC(F)F)cnc34)sc12` [Example 70, Methyl 2-(2-(2-(difluoromethoxy)-7-methylquinoxalin-5-yl)-4-methylbenzo[d]thiazol-7-yloxy)ethylcarbamate], for which the IC50 came to 34 nM. In the case of `Cc1cc(-c2nc3ccc(OCc4cscn4)cc3s2)c2ncc(OC(F)F)nc2c1` [Example 71, 2-(2-(difluoromethoxy)-7-methylquinoxalin-5-yl)-6-(thiazol-4-ylmethoxy) benzo[d]thiazole], the IC50 was found to be 160 nM. On to `COc1cnc2c(-c3nc4ccc(OCCNS(=O)(=O)c5ccccc5)cc4s3)cc(C)cc2n1` [Example 72, N-(2-(2-(2-methoxy-7-methylquinoxalin-5-yl)benzo[d]thiazol-6-yloxy)ethyl)benzenesulfonamide], for which the IC50 came to 1 nM. Regarding `Cc1cc(-c2nc3c(C)cc(OCCNS(=O)(=O)c4ccccc4)cc3s2)c2ncc(OC(F)F)nc2c1` [Example 73, N-(2-(2-(2-(difluoromethoxy)-7-methylquinoxalin-5-yl)-4-methylbenzo[d]thiazol-6-yloxy)ethyl)benzenesulfonamide], the IC50 worked out at 2.3 nM.

On to `Cc1cc(-c2nc3cccc(OCCO)c3s2)c2ncc(OC(F)F)nc2c1` [Example 74, 2-(2-(2-(difluoromethoxy)-7-methylquinoxalin-5-yl)benzo[d]thiazol-7-yloxy)ethanol], for which the IC50 turned out to be 9.3 nM. Take `COCCOc1cccc2nc(-c3cc(C)cc4nc(OC(F)F)cnc34)sc12` [Example 75, 2-(2-(difluoromethoxy)-7-methylquinoxalin-5-yl)-7-(2-methoxyethoxy)benzo[d]thiazole]: the IC50 was found to be 14 nM. `Cc1cc(-c2nc3cccc(NC(=O)OCc4ccccc4)c3s2)c2ncc(OC(F)F)nc2c1` [Example 76, benzyl 2-(2-(difluoromethoxy)-7-methylquinoxalin-5-yl)benzo[d]thiazol-7-ylcarbamate]: the IC50 stood at 2.1 nM.

(Values after patent publication US12060347B2 (BRISTOL-MYERS SQUIBB COMPANY, priority 2016, dated 2024).)
